Molecular target: T1, ATPBD of A. fulgidus CopB (Strep-tagged) (Archaeoglobus fulgidus, UniProt O30085)
T1 sequence (O30085 372-636): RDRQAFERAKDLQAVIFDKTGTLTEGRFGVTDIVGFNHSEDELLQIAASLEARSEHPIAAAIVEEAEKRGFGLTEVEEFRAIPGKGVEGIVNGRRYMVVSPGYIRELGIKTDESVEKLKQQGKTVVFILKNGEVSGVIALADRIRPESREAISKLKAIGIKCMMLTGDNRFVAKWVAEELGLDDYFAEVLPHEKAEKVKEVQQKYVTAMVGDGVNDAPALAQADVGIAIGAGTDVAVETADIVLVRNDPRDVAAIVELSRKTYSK
Assay: biochemical

`Nc1ncnc2c1ncn2[C@@H]1O[C@H](COP(=O)(O)OP(=O)(O)OP(=O)(O)O)[C@@H](O)[C@H]1O` [ATP] showed a Kd of 34 ± 2 µM.
